pIC50: −log10 of the molar value.
target: Tryptophan--tRNA ligase (Mycobacterium tuberculosis (strain ATCC 25618 / H37Rv), UniProt P9WFT3); test: Biochemical assay for Mt-TrpRS; format: functional
Sequence (P9WFT3 whole entry): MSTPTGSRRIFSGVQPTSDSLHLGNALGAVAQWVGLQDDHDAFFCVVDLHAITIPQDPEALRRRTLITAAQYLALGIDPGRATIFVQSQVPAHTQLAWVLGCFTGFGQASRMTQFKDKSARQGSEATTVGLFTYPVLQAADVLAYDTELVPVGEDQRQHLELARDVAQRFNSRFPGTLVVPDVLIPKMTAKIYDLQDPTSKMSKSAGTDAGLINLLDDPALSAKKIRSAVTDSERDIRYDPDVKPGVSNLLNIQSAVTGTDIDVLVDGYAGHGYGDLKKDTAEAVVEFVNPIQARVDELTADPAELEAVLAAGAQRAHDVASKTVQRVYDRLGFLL

SMILES	pIC50
CCCC(=O)N1CCCC(c2ccccn2)C1 (stereo not drawn)	< 3.71
COc1cccc(CNCc2cccnc2)c1	< 3.71
O=C(Cc1cccc(O)c1)N1CCCC(O)(CN2CCOCC2)CC1 (stereo not drawn)	< 3.71
O=C(Cc1cccc(O)c1)N1CCCC(O)(CN2CCCC2)CC1 (stereo not drawn)	< 3.71
OCCN1CCCCC1c1cc[nH]n1 (stereo not drawn)	< 3.71
CC(C)C(=O)N1CCC(C)(c2cc(O)[nH]n2)CC1	< 3.71
O=C(NC[C@H]1CC[C@H](c2nnc(-c3cccnc3)o2)CC1)C1CC1	< 3.71
Cc1c[nH]nc1C1CCN(C(=O)C2CCCC2)C1 (stereo not drawn)	< 3.71
c1cc(-c2cnc(C3CCNCC3)cn2)n[nH]1	< 3.71
Nc1nccnc1C1CN(Cc2ccc(OCC(=O)O)cc2)CCO1 (stereo not drawn)	< 3.71
O=C(c1cc2c(s1)CCC2)N1CCCC(c2cnccn2)C1 (stereo not drawn)	< 3.71
NC(=O)C1(Cc2ccc(-c3ccccc3)cc2)CCNC1 (stereo not drawn)	< 3.71
Cc1cnc(N2CCOC(C(=O)NCc3ccccc3)C2)s1 (stereo not drawn)	< 3.71
NC(=O)CN1CCC(c2cccc(Oc3ccccc3)n2)CC1	< 3.71
Nc1nccc(C2CCN(CCO)C2)n1 (stereo not drawn)	< 3.71
CN(C)c1nccc(C2CCN(C3CCCCC3O)CC2)n1 (stereo not drawn)	< 3.71
Cc1ccc(S(=O)(=O)N2C[C@H]3C[C@H](NC(=O)c4cc[nH]n4)[C@H]3C2)cc1	< 3.71
O=C(c1cccnn1)N1C[C@@H]2CC[C@H](Oc3cccc(F)c3)[C@@H]2C1	< 3.71
Cc1cc(N)cc(C2CN(Cc3cc[nH]n3)CCO2)n1 (stereo not drawn)	< 3.71
NCc1cnn(-c2ccccc2C(=O)NCCc2ccccn2)c1	< 3.71
O=C1CO[C@H]2CN(Cc3ccccc3Br)C[C@@H]2N1	< 3.71
COCCNC(=O)c1ccccc1-n1cc(CN)cn1	< 3.71
Cn1cc(CN2CC[C@H](O)[C@@H](n3ccc(=O)[nH]c3=O)CC2)cn1	< 3.71
CN(CC1(O)CCN(c2ccccn2)C1)C(=O)Cc1ccsc1 (stereo not drawn)	< 3.71
Cc1nc(C2CCCN2C(=O)CC2CCCC2)ncc1C(N)=O (stereo not drawn)	< 3.71
CC(=O)N1CCC(Cc2cnc(C(=O)N3CCCC3)cn2)C1 (stereo not drawn)	< 3.71

SMILES	pIC50
Cc1c[nH]nc1C1CCN(S(=O)(=O)N(C)C)C1 (stereo not drawn)	< 3.71
O=C(c1cnco1)N1C[C@@H](O)[C@H](Oc2cccc(F)c2)C1	< 3.71
CNCC(=O)N1CCCCC1c1nccc(C)n1 (stereo not drawn)	< 3.71
NC(=O)CN1CCOCC(Cc2ccccc2)C1 (stereo not drawn)	< 3.71
CC(=O)N1CCCC(c2ccc(C(N)=O)cn2)C1 (stereo not drawn)	< 3.71
Cc1ncsc1CN1CCN(C2CCOCC2)CC(C(N)=O)C1 (stereo not drawn)	< 3.71
CNc1cc(C2CCCN2Cc2ccc(OCC(=O)O)cc2)ccn1 (stereo not drawn)	< 3.71
COCCN1CCC(c2cncc(N(C)C)n2)CC1	< 3.71
O=C(c1cccnc1)N1CCC(c2nc(O)cc(-c3ccncc3)n2)C1 (stereo not drawn)	< 3.71
O=C(c1ccccn1)N1CCC(c2nc(O)cc(-c3ccncc3)n2)C1 (stereo not drawn)	< 3.71
CN1CCC(Cc2cc(Nc3ccccn3)ncn2)CC1	< 3.71
CNc1nccnc1C1CCN(C(C)C)CC1	< 3.71
CN(C)c1cncc(C2CCN(CC(N)=O)CC2)n1	< 3.71
O=C(Cn1ccnc1)N1C[C@@H]2CC[C@H](Oc3ccccc3F)[C@@H]2C1	< 3.71
CN(Cc1ccc(F)cc1)CC1(O)CCN(C(=O)c2ccsc2)C1 (stereo not drawn)	< 3.71
NC(=O)C1(CCCc2ccncc2)CCCN1 (stereo not drawn)	< 3.71
O=C(O)C1(Cc2cccc(-c3ccc(F)cc3)c2)CCOCC1	< 3.71
O=C(c1cncs1)N1CCC(c2cnccn2)CC1	< 3.71
CC(=O)NC(=O)C1(CCCc2ccncc2)CCN1 (stereo not drawn)	< 3.71
CC(=O)N1CCN(CC(N)=O)CC(COc2ccccc2)C1 (stereo not drawn)	< 3.71
CN(C)CCn1c([C@H]2CCCO2)cc2cccnc21	< 3.71
O=C(NCCN1CCOCC1)Nc1cnc2cc(Cl)ccc2c1O	< 3.71
COCCC(=O)N1CCCC(c2nc(O)cc(-c3ccncc3)n2)C1 (stereo not drawn)	< 3.71
O=C(C1CCCC1)N1CCCC(c2nc(O)cc(-c3ccncc3)n2)C1 (stereo not drawn)	< 3.71
CNC(=O)Nc1cnc2cc(Cl)ccc2c1O	< 3.71
O=C(O)C1(Cc2cc(-c3ccc(F)cc3)no2)CCOCC1	< 3.71

SMILES	pIC50
O=C(O)C1(Cc2cc(-c3ccccc3F)no2)CCOCC1	< 3.71
CN1CCC(Cc2cncc(-c3ccccc3C(=O)O)n2)C1 (stereo not drawn)	< 3.71
COCCN1C(=O)CO[C@H]2CN(Cc3ccccc3Cl)C[C@@H]21	< 3.71
COCc1cc(O)nc(C2CCCN(Cc3cccc(Cl)c3Cl)C2)n1 (stereo not drawn)	< 3.71
OC1CCN(Cc2c(-c3ccco3)[nH]c3ncccc23)CC1	< 3.71
O=C(C1CCCCC1)N1CCC(c2n[nH]c3nccnc23)CC1	< 3.71
O=C(C1CCCC1)N1CCC(c2n[nH]c3nccnc23)CC1	< 3.71
CC(=O)NC[C@]1(O)CCN(C(=O)c2ccc(F)c(Cl)c2)C[C@H]1O	< 3.71
O=C(N[C@@H]1CN(Cc2ccc3[nH]ccc3c2)C[C@H]1O)c1cscn1	< 3.71
CC(=O)N1CCCC(c2cccc(-n3ccnc3)n2)C1 (stereo not drawn)	< 3.71
c1cnc(N2CCCC(c3n[nH]c4ncccc34)C2)nc1 (stereo not drawn)	< 3.71
c1cnc(N2CCC(c3n[nH]c4ncccc34)C2)nc1 (stereo not drawn)	< 3.71
CN(CCC(=O)N1CCCC(Cc2cccnc2)C1)Cc1cccnc1 (stereo not drawn)	< 3.71
COc1ccc(CN2C[C@@H](O)[C@](O)(CNC(=O)c3ccccn3)C2)cc1	< 3.71
Cc1nccn1CC1CCCN(C(=O)c2cnn(C)c2)C1 (stereo not drawn)	< 3.71
CCn1cc(S(=O)(=O)NC(=O)CCc2c[nH]c3ccccc23)cn1	< 3.71
CC1CN(Cc2ccccc2)CCCN1CCNS(C)(=O)=O (stereo not drawn)	< 3.71
Cc1cnn(CCCNC2Cc3ccccc3C2)c1	< 3.71
COC(=O)CCCNC(=O)Nc1ccccc1OC	< 3.71
Cc1cc(CS(=O)(=O)CC(=O)N2c3ccccc3CC2C)no1 (stereo not drawn)	< 3.71
CN(C)C(CNCc1nc(-c2ccsc2)no1)c1cccs1 (stereo not drawn)	< 3.71
CN(C)C(CNCc1nc(-c2ccsc2)no1)c1ccsc1 (stereo not drawn)	< 3.71
COc1ccccc1NC(=O)NCCCC(=O)Nc1cn[nH]c1	< 3.71
COc1cc(NC2CCCNC2)cc(OC)c1 (stereo not drawn)	< 3.71
CS(=O)(=O)c1nccn1Cc1ccc(F)cc1Cl	< 3.71
CC1CCN(CC(O)CNc2ccccn2)CC1 (stereo not drawn)	< 3.71

SMILES	pIC50
OC(CNc1ccc(Cl)cn1)CN1CCOCC1 (stereo not drawn)	< 3.71
COc1ccccc1NC(=O)NCc1cn[nH]c1	< 3.71
CS(=O)(=O)c1nccn1CCOc1ccccc1F	< 3.71
COc1cccc(C2=CCN(CCN3CCOC3=O)CC2)c1	< 3.71
CC1CN(Cc2ccccc2)CCCN1CCS(C)(=O)=O (stereo not drawn)	< 3.71
COCCN1CC=C(c2cccc(OC)c2)CC1	< 3.71
CSCC(C)(O)CNc1ncccc1I (stereo not drawn)	< 3.71
COc1ccc2c(c1)CC(NCCCn1cc(C)cn1)CC2 (stereo not drawn)	< 3.71
Cc1cc(C)c(CNC(=O)NCc2nnc3n2CCC3)c(=O)[nH]1	< 3.71
COc1c(C(=O)N2CCC(CSc3ccccc3)C2)c(C)nn1C (stereo not drawn)	< 3.71
C[S+]([O-])CCNC(=O)Nc1cc(F)ccc1-n1cccn1 (stereo not drawn)	< 3.71
Cc1nn(C)cc1C(=O)N1CCC(CSc2ccccc2)C1 (stereo not drawn)	< 3.71
OCc1nnc2n1CCN(c1cnccn1)C2	< 3.71
O=C(Cc1cccs1)N1Cc2nc(CN3CCCC3)oc2C1	< 3.71
NC(=O)N1CCc2ncc(CNC(=O)CC3CC3)n2CC1	< 3.71
COCCN1CCc2ncnc(NC3CC3)c2CC1	< 3.71
Cc1nc(Cn2c3c(ccc2=O)CC(NC(N)=O)CC3)cs1 (stereo not drawn)	< 3.71
Cc1ccc2c(c1)[C@@H](CC(=O)N(C)C)CCO2	< 3.71
COCCN1CC(=O)c2sc(NC(C)C)nc2C1	< 3.71
CN1CC(=O)c2sc(NCCc3ccccc3)nc2C1	< 3.71
OCCN1CCN(Cc2cnc3c(-c4ccccc4)cnn3c2)CC1	< 3.71
O=C(CN1CCOC1=O)N1CC[C@@H](c2ccc3ccccc3c2)[C@H](O)C1	< 3.71
CNC(=O)c1nc(CN2CCOC(C(F)(F)F)C2)no1 (stereo not drawn)	< 3.71
Nc1cnc(-c2ccc(F)cc2Cl)cn1	< 3.71
NCC(=O)N1CCCC1c1n[nH]cc1-c1ccccc1F (stereo not drawn)	< 3.71
C[C@H](N)Cn1nc(-c2cccs2)oc1=O	< 3.71

SMILES	pIC50
O=C(CCC1CCCC1)N1CCCC(c2ncc3c(n2)CCNC3)C1 (stereo not drawn)	< 3.71
Cc1nc(C2(O)CCCNCC2)sc1CCOc1ccc(F)cc1 (stereo not drawn)	< 3.71
CNC(=O)C1(CCCc2ccncc2)CCCCN1 (stereo not drawn)	< 3.71
COCCC(=O)NCCn1nc(C2CCNC2)c2cccnc21 (stereo not drawn)	< 3.71
Cc1cc(N(C)C)nc(C2CCNC2)n1 (stereo not drawn)	< 3.71
CNC(=O)C1(CCCc2ccncc2)CCN1 (stereo not drawn)	< 3.71
CNC(=O)COC1COC2(CCN(Cc3cccnc3)CC2)C1 (stereo not drawn)	< 3.71
c1cc(CN2C[C@H](OCC3CCOCC3)[C@H]3COC[C@H]32)co1	< 3.71
N#Cc1cccc(CN2CC[C@@H]3CN(c4ncccn4)CCO[C@@H]3C2)c1	< 3.71
CN(C)C(=O)CN1CCOCC2(C1)CN(c1ncccn1)CCO2 (stereo not drawn)	< 3.71
CN(C)[C@@H]1CN(C(=O)Cc2ccc(F)cc2)[C@@H]2CCCO[C@H]12	< 3.71
c1csc(CN2C[C@H](OCC3CC3)[C@H]3COC[C@H]32)n1	< 3.71
O=C1CC[C@H]2[C@H](CCN2c2ncccn2)N1c1ccccc1	< 3.71
CCc1ncnc2c1CCN(CCOC)CC2	< 3.71
CN(C)C(=O)CO[C@H]1CN(Cc2ccsc2)[C@@H]2COC[C@H]12	< 3.71
CCc1ccc(CN2C[C@H](OC)[C@H]3COC[C@H]32)o1	< 3.71
Cc1ccc(CN2CCO[C@H]3[C@H](OCc4cccnc4)CC[C@@H]32)o1	< 3.71
Fc1cccc(CN2C[C@@H]3CN(c4ncccn4)C[C@@H]3C2)c1	< 3.71
c1ccc(OCC2C[C@@H]3[C@@H](C2)OCCN3Cc2ccoc2)nc1 (stereo partly drawn)	< 3.71
OC1CCCN(Cc2ccnc(-c3cccnc3)n2)C1 (stereo not drawn)	< 3.71
CC(C)c1ncc(CN2CCC(CO)C2)cn1 (stereo not drawn)	< 3.71
Cc1cc(C[C@@H]2COC[C@H]2NCc2ccc(Cl)c(Cl)c2)on1	< 3.71
Cc1cc(C[C@@H]2CCC[C@H]2NCc2ccccc2F)on1	< 3.71
Cc1nc(O)cc(C2CCN(Cc3ccc(F)c(F)c3)C2)n1 (stereo not drawn)	< 3.71
